{"source": "ChEMBL document CHEMBL3871282", "about": "“Neo-tanshinlactone D-ring modified novel analogues induce apoptosis in human breast cancer cell via DNA damage” (Bioorg Med Chem, 2017)", "key": {"[1]": {"assay": "Cytotoxicity against human SKBR3 ER negative, PR negative,HER2 positive cells assessed as cell growth inhibition after 24 hrs by MTT assay", "assay_type": "functional, cell-based", "settings": "SK-BR-3, 24 h"}, "[2]": {"assay": "Cell cycle arrest in human MCF7 cells assessed as S phase at 12 nM after 24 hrs by propidium iodide staining based FACS analysis (reference value: 27.5%)", "assay_type": "functional"}, "MCF7 [3]": {"system": "MCF7", "assay": "Induction of DNA double strand breaks in human MCF7 cells assessed as activation of phosphorylated Chk2 at Thr68 residue after 24 hrs immunoblot analysis", "assay_type": "cell-based"}, "[4]": {"assay": "Cytotoxicity against human WI38 cells assessed as cell growth inhibition after 24 hrs by MTT assay", "assay_type": "toxicity, cell-based, WI-38"}, "[5]": {"assay": "Cell cycle arrest in human MCF7 cells assessed as G0/G1 phase at 12 nM after 24 hrs by propidium iodide staining based FACS analysis (reference value: 43.9%)", "assay_type": "functional"}, "MCF7 [6]": {"system": "MCF7", "assay": "Induction of DNA damage-mediated apoptosis in human MCF7 cells assessed as cleaved PARP after 24 hrs by immunoblot analysis", "assay_type": "cell-based"}, "MCF7 [7]": {"system": "MCF7", "assay": "Induction of DNA damage-mediated apoptosis in human MCF7 cells assessed as downregulation of HDAC1 after 24 hrs by DAPI staining based immunocytochemistry analysis", "assay_type": "cell-based"}, "Escherichia coli": {"system": "Escherichia coli", "assay": "Induction of Escherichia coli supercoiled pBR322 DNA cleavage assessed as increase in open circular form of DNA band after 3 hrs by ethidium bromide staining based agarose gel electrophoresis method"}, "[8]": {"assay": "Cell cycle arrest in human MCF7 cells assessed as G0/G1 phase at 8 nM after 24 hrs by propidium iodide staining based FACS analysis (reference value: 43.9%)", "assay_type": "functional"}, "MCF7 [9]": {"system": "MCF7", "assay": "Induction of DNA damage-mediated apoptosis in human MCF7 cells assessed as decrease in HDAC2 expression in cytoplasmic fraction at 8 to 16 nM after 24 hrs by immunoblot analysis", "assay_type": "cell-based"}, "MCF7 [10]": {"system": "MCF7", "assay": "Disruption of mitochondrial membrane potential in human MCF7 cells assessed as decrease in red/green fluorescence ratio at 8 to 16 nM after 24 hrs by JC1-staining based fluorescent microscopic analysis", "assay_type": "functional, cell-based"}, "[11]": {"assay": "Cytotoxicity against human HCT116 cells assessed as cell growth inhibition after 24 hrs by MTT assay", "assay_type": "functional, cell-based", "settings": "HCT-116, 24 h"}, "MCF7 [12]": {"system": "MCF7", "assay": "Induction of DNA double strand breaks in human MCF7 cells assessed as increase in H2AX to gamma-H2AX ratio at near IC50 after 24 hrs by DAPI staining-based immunocytochemistry analysis relative to control", "assay_type": "cell-based"}, "MCF7 [13]": {"system": "MCF7", "assay": "Antiproliferative activity against human MCF7 cells assessed as effect on cellular morphology after 24 hrs by phase contrast microscopic method", "assay_type": "functional, cell-based"}, "MCF7 [14]": {"system": "MCF7", "assay": "Induction of apoptosis in human MCF7 cells assessed as early apoptotic cells at 12 nM after 24 hrs by Annexin V-FITC/propidium iodide-dual staining based FACS analysis (reference value: 2.3%)", "assay_type": "functional"}, "[15]": {"assay": "Cytotoxicity against human MDA-MB-231 ER negative, PR negative,HER2 negative cells assessed as cell growth inhibition after 24 hrs by MTT assay", "assay_type": "functional, cell-based", "settings": "MDA-MB-231, 24 h"}, "Bos taurus": {"organism": "Bos taurus", "assay": "Binding affinity to calf thymus DNA assessed hyperchromic shift at 260 nm up to 1:1 compound to DNA ratio measured by UV-Vis spectrophotometric analysis"}, "MCF7 [16]": {"system": "MCF7", "assay": "Induction of DNA damage-mediated apoptosis in human MCF7 cells assessed as downregulation of HDAC2 after 24 hrs by DAPI staining based immunocytochemistry analysis", "assay_type": "cell-based"}, "[17]": {"assay": "Cell cycle arrest in human MCF7 cells assessed as S phase at 8 nM after 24 hrs by propidium iodide staining based FACS analysis (reference value: 27.5%)", "assay_type": "functional"}, "MCF7 [18]": {"system": "MCF7", "assay": "Induction of DNA double strand breaks in human MCF7 cells assessed as increase in H2AX to gamma-H2AX ratio after 24 hrs by Western blot analysis", "assay_type": "cell-based"}, "MCF7 [19]": {"system": "MCF7", "assay": "Induction of DNA damage-mediated apoptosis in human MCF7 cells assessed as decrease in HDAC3 expression in nuclear fraction at 8 to 16 nM after 24 hrs by immunoblot analysis", "assay_type": "cell-based"}, "MCF7 [20]": {"system": "MCF7", "assay": "Induction of apoptosis in human MCF7 cells assessed as late apoptotic cells at 12 nM after 24 hrs by Annexin V-FITC/propidium iodide-dual staining based FACS analysis (reference value: 0.1%)", "assay_type": "functional"}, "MCF7 [21]": {"system": "MCF7", "assay": "Induction of apoptosis in human MCF7 cells assessed as late apoptotic cells at 16 nM after 24 hrs by Annexin V-FITC/propidium iodide-dual staining based FACS analysis (reference value: 0.1%)", "assay_type": "functional"}, "[22]": {"assay": "Cytotoxicity against human HeLa cells assessed as cell growth inhibition after 24 hrs by MTT assay", "assay_type": "functional, cell-based"}}, "note": "The source made the active and inactive calls. The rule behind the calls is not given here.", "data": [{"compound": "O=c1cc(OCc2ccccc2)c2ccc3ccccc3c2[nH]1", "values": [{"measurement": "IC50", "setting": "[1]", "result": 23.7, "unit": "nM"}, {"measurement": "Activity", "setting": "[2]", "result": 25.1, "unit": "%"}, {"measurement": "Activity", "setting": "MCF7 [3]", "result": "Dose-dependent effect"}, {"measurement": "IC50 at 24 h", "setting": "[4]", "result": "> 100000", "unit": "nM"}, {"measurement": "Activity", "setting": "[5]", "result": 58.1, "unit": "%"}, {"measurement": "Activity", "setting": "MCF7 [6]", "result": "Dose-dependent effect"}, {"measurement": "Activity", "setting": "MCF7 [7]", "result": "Dose-dependent effect"}, {"measurement": "Activity", "setting": "Escherichia coli", "result": "Dose-dependent effect"}, {"measurement": "Activity", "setting": "[8]", "result": 55.1, "unit": "%"}, {"measurement": "Activity", "setting": "MCF7 [9]", "result": "Active"}, {"measurement": "Activity", "setting": "MCF7 [10]", "result": "Active"}, {"measurement": "IC50", "setting": "[11]", "result": 44.1, "unit": "nM"}, {"measurement": "fold change (FC)", "setting": "MCF7 [12]", "result": 11}, {"measurement": "Activity", "setting": "MCF7 [13]", "result": "Dose-dependent effect"}, {"measurement": "Activity", "setting": "MCF7 [14]", "result": 39, "unit": "%"}, {"measurement": "IC50", "setting": "[15]", "result": 62.9, "unit": "nM"}, {"measurement": "Activity", "setting": "Bos taurus", "result": "Active"}, {"measurement": "Activity", "setting": "MCF7 [16]", "result": "Dose-dependent effect"}, {"measurement": "Activity", "setting": "[17]", "result": 25.8, "unit": "%"}, {"measurement": "Activity", "setting": "MCF7 [18]", "result": "Dose-dependent effect"}, {"measurement": "Activity", "setting": "MCF7 [19]", "result": "Active"}, {"measurement": "Activity", "setting": "MCF7 [20]", "result": 5.8, "unit": "%"}, {"measurement": "Activity", "setting": "MCF7 [21]", "result": 5.6, "unit": "%"}, {"measurement": "IC50", "setting": "[22]", "result": 52100, "unit": "nM"}]}]}
